Tests used:
IAV = type: cell-based, influenza A virus
[1] = test system: influenza virus A/PR/8/34-GFP; type: cell-based
[2] = test system: influenza virus (A/PR/8/34-GFP); type: cell-based

With `O=C(/C=C/c1ccc(O)c(O)c1)O[C@@H]1C[C@](O)(C(=O)O)C[C@@H](O)[C@H]1O` [chlorogenic acid] the “levels of IAV proteins compared with untreated cells” value (IAV) was “suppressed” and the “level of GFP compared with untreated cells” value [1] was “lower”.

For `CC(C)=CCC[C@](C)(O[C@@H]1O[C@H](CO)[C@@H](O)[C@H](O)[C@H]1O)[C@H]1CC[C@]2(C)[C@@H]1[C@H](O)C[C@@H]1[C@@]3(C)CC[C@H](O[C@@H]4O[C@H](CO)[C@@H](O)[C@H](O)[C@H]4O[C@@H]4O[C@H](CO)[C@@H](O)[C@H](O)[C@H]4O)C(C)(C)[C@@H]3CC[C@]12C` [ginsenoside Rd], the “levels of IAV proteins compared with untreated cells” value (IAV) was “suppressed” and the “level of GFP compared with untreated cells” value [1] was “lower”.

B1: IFN-β: mouse IFN-β (1,000 units/ml), positive control (protein, UniProt P01575 22-182, looked up)
Interferon beta: INYKQLQLQERTNIRKCQELLEQLNGKINLTYRADFKIPMEMTEKMQKSYTAFAIQEMLQNVFLVFRNNFSSTGWNETIVVRLLDELHQQTVFLKTVLEEKQEERLTWEMSSTALHLKSYYWRVQRYLKLMKYNSYAWMVVRAEIFRNFLIIRRLTRNFQN
B1 was tested, and the “GFP (influenza virus infection rate)” value [2] was 1.45.

From patent US20220211792A1, “COMPOSITION CONTAINING NATURAL EXTRACTS FOR ENHANCEMENT OF INNATE IMMUNITY OR ANTIVIRAL USE AGAINST INFLUENZA VIRUS OR CORONA VIRUS” (OKCHUNDANG CO., LTD., priority 2021, published 2022)
